In article PMC12503906, “Novel Pyrazolo [1,5‐a]−1,3,5‐Triazine Derivatives as CDK7 Inhibitors: Synthesis and Biological Insights in Pancreatic Ductal Adenocarcinoma Models” (Chemmedchem, 2025):

What was measured:
Format in all cases: cell-based
[1] = system: Bax/Bcl‐2; assay: Bax/Bcl‐2 ratio by RT‐PCR, PATU‐T cells
Description: In order to understand modulation of downstream genes of CDK7, gene expression analysis by qPCR was performed in all cell lines. Cells (5 × 10^5/well) were seeded in 6‐well plates and treated with the compounds 1b and 1g at 1× and 4 × IC50 concentrations. Cell lysates were collected 24 h post‐treatment using 300 µL of TRIzol Reagent (Ambion, 15,596,018) per well. Total RNA was extracted by mixing 60 µL of chloroform to the samples, incubating for 3 min and centrifuging at 12,000 rcf for 15 min at 4 °C. The upper aqueous phase containing RNA was transferred to a new Eppendorf and mixed with 120 µL of cold isopropanol in order to allow the RNA to precipitate. Samples were incubated at RT for 10 min and were then centrifuged at 12,000 rcf for 10 min at 4 °C. The isopropanol was carefully removed, and the pellet was washed twice with 70% ETOH. Pellets were left to air dry and consequently resuspended in RNAse‐free water. Samples were left agitation on a thermomixer at 55 °C for 10 min at 600 rpm and were then quantified through NanoDrop technology (Thermo Scientific, NanoDrop One/One^c). RNA samples were stored at −80 °C.
In order to perform cDNA synthesis, the First Strand cDNA synthesis kit (Thermo Scientific, K1612) was used. The previously isolated RNA was mixed with 1 µL of oligo dT18 primer into a pcr tube. Nuclease free water was added to reach a final volume of 11 µL. Samples were centrifuged at 1200 rcf for 5 min and were then placed on a thermomixer at 65 °C for a few minutes. A master mix was prepared, including 4 µL of 5× reaction buffer, 1 µL of ribolock RNAse inhibitor, 2 µL of dntp mix (10 mM), and 2 µL of M‐mulv reverse transcriptase for each sample. In total 9 µL of master mix were added to each vial. Samples were centrifuged again and were finally synthesized, following a cycle of 60 min at 37 °C and 5 min at 70 °C. cDNA was now finally synthesized and could be stored at −20 °C. RT‐PCRs reactions were performed using SYBR Green (Bio‐Rad, 1,725,271) (5 µL per sample), primer mix (0.3 µM) (2 µL per sample), and cDNA (10 ng µL^− ^1) (3 µL per sample). […] RT‐PCR assays were carried out in a GeneAmp 5700 Sequence Detection System programmed to hold at 50 °C for 30 min, to hold at 95 °C for 10 min, and to complete 45 cycles of 95 °C for […] and 50 °C for 1 min. The genes that were investigated are shown in Table 5 , with their respective forward and reverse primer sequences.

[2] = system: PDAC3; assay: Cell cycle analysis (FACS, PI staining), PDAC3; details: for percentage of cells in the G2‐M phase: untreated 13.3%; for percentage of cells in the G0‐G1 phase: untreated 50.0%; for percentage of cells in the S phase: untreated 36.7%
Description: Modulation of the cell cycle was analyzed via flow cytometry. Cells (5 × 10^5 cells mL^− ^1) were seeded in 6‐well plates and were incubated at 37 °C overnight. Cells were treated with the compounds 1b and 1g at two different concentrations (1 × IC50 and 4 × IC50, according to each cell line) and were again incubated for 24 and 72 h. After treatment, cells were harvested with trypsin and were collected in specific fluorescence‐activated cell sorting (FACS) tubes. Cells were then washed with PBS and centrifuged at 1500 rpm for 5 min, in order to form a pellet. These pellets were fixed in 1 mL of ice‐cold 70% ethanol, added drop by drop during vortex, and placed in the refrigerator at 4 °C. After overnight incubation, the cells were washed twice with PBS, centrifuged (5 min at 1500 rpm), resuspended in 50 µL of RNase (100 µg mL^− ^1), and incubated for 30 min at 37 °C. Finally, 200 µL of propidium iodide solution (PI, 50 µg mL^− ^1) was added, and the cell distribution in the various phases of the cell cycle was analyzed via BD LSRFortessa Cell Analyzer. Data analysis was carried out with FACSdiva software (Becton Dickinson), while cell cycle distribution was determined using FCS express software.

[3] = system: SUIT 2.28; assay: Wound healing assay, SUIT 2.28
Description: The wound healing assay was used to test the migratory ability of the selected cells post‐treatment. Cells (5 × 10^4 /well) were seeded on 96‐well. After 24 h, cells reached the optimal 100% confluency, and an artificial wound was created with a 96‐well Pintool Scratcher. The cells were immediately washed with complete medium, in order to remove cell debris after the scratch, and images of the wells were captured at time 0 h, right before the addition of the treatment. Each drug (1b and 1g) was previously diluted in the respective medium at two different concentrations: 1 × IC50 and 4 × IC50 (according to the cell specific IC50 value) and were then added to the cells. Images were then taken at timepoints 4, 8, 20, and 24 h using the Leica microscope with a JAI TMC‐137 camera to assess wound closure. The images were analyzed using the Universal Grab 6.3 software (DCILabs), and the obtained data were used to determine the percentage of migration of the cells, using the following formula. (2) % Migration=Mean width of the wound atT=0−Mean width of the wound atT=X/Mean width of the wound atT=0×100

Structure (SMILES): Nc1ncnc2cc(-c3c[nH]c4ccc(Br)cc34)nn12 [Compound 1b, 7‐(5‐Bromo‐1H‐indol‐3‐yl)pyrazolo[1,5‐a][1,3,5]triazin‐4‐amine]
- Bax/Bcl‐2 ratio PATU‐T ([1]; 1 × IC50, 24 h after treatment): 4.43
- Bax/Bcl‐2 ratio PATU‐T ([1]; 4 × IC50, 24 h after treatment): 4.03
- percentage of cells in the G2‐M phase ([2]; PDAC3, 1 × IC50, 24 h): 11.1%
- percentage of cells in the G0‐G1 phase ([2]; PDAC3, 1 × IC50, 24 h): 44.0%
- percentage of cells in the G2‐M phase ([2]; PDAC3, 4 × IC50, 24 h): 6.9%
- percentage of cells in the S phase ([2]; PDAC3, 4 × IC50, 24 h): 51.6%
- percentage of cells in the G0‐G1 phase ([2]; PDAC3, 4 × IC50, 24 h): 41.6%
- inhibition of cell migration ([3]; SUIT 2.28, 1 × IC50 and 4 × IC50): strong inhibitory effects

Structure (SMILES): Cn1cc(-c2cc3ncnc(N)n3n2)c2cc(Br)ccc21 [Compound 1g, 7‐(5‐Bromo‐1‐methyl‐1H‐indol‐3‐yl)pyrazolo[1,5‐a][1,3,5]triazin‐4‐amine]
- Bax/Bcl‐2 ratio PATU‐T ([1]; 1 × IC50, 24 h after treatment): 2.82
- Bax/Bcl‐2 ratio PATU‐T ([1]; 4 × IC50, 24 h after treatment): 3.74
- percentage of cells in the G2‐M phase ([2]; PDAC3, 1 × IC50, 24 h): 13.3%
- percentage of cells in the S phase ([2]; PDAC3, 1 × IC50, 24 h): 30.8%
- percentage of cells in the G0‐G1 phase ([2]; PDAC3, 1 × IC50, 24 h): 55.9%
- percentage of cells in the G2‐M phase ([2]; PDAC3, 4 × IC50, 24 h): 9.8%
- percentage of cells in the S phase ([2]; PDAC3, 4 × IC50, 24 h): 30.4%
- percentage of cells in the G0‐G1 phase ([2]; PDAC3, 4 × IC50, 24 h): 59.8%
- inhibition of cell migration ([3]; SUIT 2.28, 1 × IC50): greatest inhibition
